Results taken from PubChem BioAssay (NCI).
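Step 1: Grow cells in 96-well plates. Step 2: Expose to compound for 48 hours at 5 concentrations. Step 3: Interpolate endpoints linearly; if unreached, use highest concentration. Definition used: TGI = concentration required for complete inhibition of growth.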

Legend:
Assay in all cases: DTP human tumour cell line panel, 48 h
HCT-116 colon = system: HCT-116 colon
HL-60(TB) leukemia = system: HL-60(TB) leukemia
HT29 colon = system: HT29 colon
A498 renal = system: A498 renal
IGROV1 ovarian = system: IGROV1 ovarian
UACC-62 melanoma = system: UACC-62 melanoma
SK-MEL-28 melanoma = system: SK-MEL-28 melanoma
NCI-H23 lung = system: NCI-H23 lung
ACHN renal = system: ACHN renal
LOX IMVI melanoma = system: LOX IMVI melanoma
SF-268 CNS = system: SF-268 CNS
SNB-19 CNS = system: SNB-19 CNS
NCI-H522 lung = system: NCI-H522 lung
MOLT-4 leukemia = system: MOLT-4 leukemia
UACC-257 melanoma = system: UACC-257 melanoma
HCC-2998 colon = system: HCC-2998 colon
U251 CNS = system: U251 CNS
SR leukemia = system: SR leukemia
MDA-MB-435 = system: MDA-MB-435
SN12C renal = system: SN12C renal

| SMILES | TGI (HCT-116 colon) | TGI (HL-60(TB) leukemia) | TGI (HT29 colon) | TGI (A498 renal) | TGI (IGROV1 ovarian) | TGI (UACC-62 melanoma) | TGI (SK-MEL-28 melanoma) | TGI (NCI-H23 lung) | TGI (ACHN renal) | TGI (LOX IMVI melanoma) | TGI (SF-268 CNS) | TGI (SNB-19 CNS) | TGI (NCI-H522 lung) | TGI (MOLT-4 leukemia) | TGI (UACC-257 melanoma) | TGI (HCC-2998 colon) | TGI (U251 CNS) | TGI (SR leukemia) | TGI (MDA-MB-435) | TGI (SN12C renal) |
| --- | --- | --- | --- | --- | --- | --- | --- | --- | --- | --- | --- | --- | --- | --- | --- | --- | --- | --- | --- | --- |
| [C-]#[N+]C1(C(=O)OCC)CC1 | > 100 µM | > 100 µM | > 100 µM | > 100 µM | > 100 µM | > 100 µM | > 100 µM | > 100 µM | > 100 µM | > 100 µM | > 100 µM | > 100 µM | > 100 µM | > 100 µM | > 100 µM | > 100 µM | > 100 µM | > 100 µM | > 100 µM | > 100 µM |
| O=C(OC(/C=C/c1ccccc1)P1(=O)N(Cc2ccccc2)[C@@H]2CCCC[C@H]2N1Cc1ccccc1)c1ccccc1 (stereo not given in full) | > 100 µM | 7.43 µM | > 100 µM | > 100 µM | > 25.6 µM | > 100 µM | > 100 µM | > 31.5 µM | > 100 µM | > 74.9 µM | > 100 µM | > 100 µM | > 30.6 µM | 6.47 µM | > 54.7 µM | > 100 µM | > 100 µM | 15.2 µM | > 100 µM | > 100 µM |
| O/N=C1\CCc2cc3c(cc21)CCC3 | > 100 µM | > 100 µM | > 100 µM | > 100 µM | > 100 µM | > 100 µM | > 100 µM | > 100 µM | > 100 µM | > 100 µM | > 100 µM | > 100 µM | > 100 µM | > 100 µM | > 100 µM | > 100 µM | > 100 µM | > 100 µM | > 100 µM | > 100 µM |
| O=C1C(=C(C(=O)c2ccccc2)C(=O)c2ccccc2)OC(c2ccccc2)=C1C(=O)c1ccccc1 | 14.1 µM | 30.8 µM | 26.5 µM | 44.2 µM | 8.84 µM | 22.8 µM | 59 µM | 25.8 µM | 20.1 µM | 18.5 µM | 34.8 µM | > 100 µM | 19.5 µM | 9.86 µM | 55.1 µM | 27.6 µM | > 100 µM | 14.2 µM | 35.4 µM | 19.2 µM |
| COc1ccc(/C=C2\CN(C)CC3C2=NC(=S)NC3c2ccc(OC)cc2)cc1 (stereo not given) | > 44.7 µM | 14.8 µM | 83.1 µM | 26.3 µM | > 22.6 µM | > 100 µM | > 100 µM | > 94.1 µM | > 100 µM | > 100 µM | > 100 µM | > 100 µM | > 20.8 µM | > 81.1 µM | > 100 µM | > 100 µM | > 52.6 µM | > 100 µM | 7.86 µM | > 100 µM |
